Assay results taken from article PMC5942814 (PLoS ONE, 2018).
“And” between values parts separate entries of the source, which are not always exact repeats. Identical values can stand only once. “Also recorded” adds a separate entry of the source.

Columns and labels:
[1] = Pharmacokinetics of SNF472 via 4 h i.v. infusion in control rats; assay type: in vivo, Wistar rats; details: for AUC(0→t) / Cmax: Day 1 (control) rats
Procedure: (§1) The experiment was performed based on a model described by Terai and co-workers[27]. Uremia was induced in 10 male Wistar rats weighing ± 275 g via 10 daily oral administrations of 600 mg/kg adenine (days 1–10). Two further oral doses of 300 ng/kg α-calcidol were administered on days 11 and 13.
(§2) Due to the limitations in obtaining many sequential blood samples from rats, blood samples were only acquired from each animal at three of the nine time-points. Consequently, the area under the curves (AUCs) could not be determined for individual animals and mean AUCs were therefore used to assess dose linearity.
(§3) Following sampling, blood was collected into K3EDTA anticoagulant tubes, centrifuged at 3,500 rpm for 10 min at 4 °C and stored at -80°C pending quantification via UPLC®-MS using the method described by Tur et al.

[2] = Pharmacokinetics of SNF472 administered as an i.v. bolus; assay type: in vivo, Wistar rats; details: for C0: rat plasma phytate, extrapolated concentration at time 0
Procedure: Blood was collected at 5, 15, 60 and 120 min.
as §2, §3

[3] = test system: vitamin D3-induced cardiovascular calcification (progression); assay: Inhibition of calcification progression induced by vitamin D; assay type: in vivo, Sprague Dawley rats; details: 10 and 60 mg/kg s.c. daily
Procedure: Experiments were performed with 48 male Crl:OF Sprague Dawley rats weighing ± 250 g (Charles River Laboratories International, Inc. L’Arbresle, France) divided into 6 groups. Calcification was induced by 3 consecutive daily s.c. administrations of 100 kIU/kg vitamin D3 (Fort Dodge, Girona, Spain). Four groups were used as controls to evaluate calcification progression throughout the 14 days of study. The animals received daily s.c. injections of vehicle (NaCl 0.9%), starting 5 days after calcification induction. […] Group 1 animals were sacrificed on day 5 to evaluate calcification. Groups 2 and 3 were sacrificed on days 9 and 12, respectively, to follow the progression of calcification in control animals. Groups 4, 5 and 6 were sacrificed on day 14. Blood was obtained via heart puncture in anesthetized animals immediately before sacrifice.
(§4) Aorta and heart were removed at sacrifice, lyophilized for 24 h and weighed. Lyophilized organs were digested using a 1:1 HNO3:HClO4 mixture in a dry bath incubator for 2–4 h at 180°C and subsequently diluted with MilliQ™ water to a final volume of 10 ml. Calcium and phosphorus contents in serum, heart and aorta were quantified via inductively coupled plasma optical emission spectrometry (ICP-OES) (Perkin-Elmer SL, Optima 5300DV spectrometer)[26].

[4] = Pharmacokinetics of SNF472 administered as a s.c. bolus; assay type: in vivo, Wistar rats; details: rat
Procedure: as §2, §3

[5] = Pharmacokinetics of SNF472 via 4 h i.v. infusion in adenine-induced uremic rats; assay type: in vivo, Wistar rats; details: for AUC(0→t) / Cmax: Day 13 (uremic) rats
Procedure: as §1, §2, §3

[6] = test system: cardiovascular calcification in adenine-induced uremic rats; assay: Inhibition of calcification in a rat model of uremia (adenine + α-calcidol); assay type: in vivo, Wistar rats
Procedure: as §3
All rats were treated daily with adenine (600 mg/kg, suspended in 1% carboxymethyl cellulose, administered orally) for the first 10 days to induce uremia and α-calcidol (300 ng/kg in olive oil, administered orally) three times a week from days 11 to 19 to accelerate and homogenize the development of cardiovascular calcification. On day 19, all surviving animals were sacrificed and blood and tissue samples collected. Blood was obtained via heart puncture in anesthetized animals immediately before sacrifice.
as §4, with “Lyophilized” for “Aorta and heart were removed at sacrifice, lyophilized for 24 h and weighed. Lyophilized”
Alkaline phosphatase (ALP) activity (ref. OSR6103), and creatinine (OSR6178) and urea (ref. OSR6134) levels were determined in serum using the Beckman Coulter assay kit (Brea, CA, USA).

[7] = test system: vitamin D3-induced cardiovascular calcification; assay: Prevention of calcification induced by vitamin D; assay type: in vivo, Sprague Dawley rats
Procedure: Experiments were performed with 20 male Crl:OF Sprague Dawley rats weighing ± 350 g (Charles River Laboratories International, Inc. L’Arbresle, France). Animals were divided into four groups. […] Calcification was induced by 5 consecutive daily oral administrations of 75 kIU/kg vitamin D3 (Fort Dodge, Girona, Spain), starting on day 3 of treatment. Five sham-treated animals with no calcification induction served as controls. Rats were sacrificed 14 days after induction of calcification, and organs collected. Blood was obtained via heart puncture in anesthetized animals immediately before sacrifice.
as §4

[8] = single i.v. bolus 10 mg/kg, rat
[9] = 4 h i.v. infusion 10 mg/kg, uremic rats
[10] = 50 mg/kg 4 h i.v. infusion daily, uremic rats
[11] = 1 mg/kg i.v. every other day (e.o.d.)

Which “AUC(0→t)” value ([1]; 4 h i.v. infusion 10 mg/kg) does the source give for `O=P([O-])(O)OC1C(OP(=O)([O-])O)C(OP(=O)([O-])O)C(OP(=O)([O-])O)C(OP(=O)([O-])O)C1OP(=O)([O-])O.[Na+].[Na+].[Na+].[Na+].[Na+].[Na+]` (centres unmarked) [SNF472, hexasodium salt of myo-inositol hexaphosphate] here?
The value was 16027 ng·h/mL.

What about the Cmax ([1]; 4 h i.v. infusion 10 mg/kg, maximum at 240 min) of the same compound?
Its Cmax is 5548 ng/mL.

And the “steady state during the infusion period” value ([1]; 4 h i.v. infusion 10 mg/kg, control rats)?
Its value is “steady state was not achieved”.

And the “AUC(0→t)” value ([1]; 4 h i.v. infusion 50 mg/kg)?
Its value is 145212 ng·h/mL.

And the Cmax ([1]; 4 h i.v. infusion 50 mg/kg)?
The Cmax was 45141 ng/mL.

And the “time at which steady state was reached” value ([1]; 4 h i.v. infusion 50 mg/kg, control rats)?
The value was 60 min.

And the “AUC(0→t)” value ([2]; single i.v. bolus 1 mg/kg, rat)?
Its value is 3491 ng·h/mL.

What about the Cl ([2]; single i.v. bolus 1 mg/kg, rat) of the same compound?
The Cl was 4.83 mL/min/kg.

What about the “MRT (0→∞)” value ([2]; single i.v. bolus 1 mg/kg, rat) of the same compound?
The value was 99 min.

What about the C0 ([2]; single i.v. bolus 1 mg/kg) of the same compound?
Its C0 is 36775 ng/mL.

What about the “AUC(0→t)” value ([2]; single i.v. bolus 5 mg/kg, rat) of the same compound?
Its value is 19234 ng·h/mL.

What about the “MRT (0→∞)” value ([2]; single i.v. bolus 5 mg/kg, rat) of the same compound?
Its value is 19.8 min.

And the C0 ([2]; single i.v. bolus 5 mg/kg)?
The C0 was 84561 ng/mL.

And the “AUC(0→t)” value [2, 8]?
Its value is 38752 ng·h/mL.

And the “MRT (0→∞)” value [2, 8]?
Its value is 11.4 min.

What about the C0 ([2]; single i.v. bolus 10 mg/kg) of the same compound?
Its C0 is 156750 ng/mL.

What about the serum calcium levels [3] of the same compound?
Its serum calcium levels is “not significantly affected”.

What about the “serum phosphorus levels on day 14 vs control” value [3] of the same compound?
Its value is “No differences”.

What about the “progression of cardiac calcification” value ([3]; started 5 days after calcification induction) of the same compound?
The value was “completely blocked; also recorded: completely inhibited further progression”.

What about the “AUC(0→t)” value ([4]; single s.c. bolus 10 mg/kg) of the same compound?
Its value is 1633 ng·h/mL.

And the Cl/F ([4]; single s.c. bolus 10 mg/kg)?
Its Cl/F is 3.67 mL/min/kg.

And the Cmax ([4]; single s.c. bolus 10 mg/kg)?
The Cmax was 4876 ng/mL.

What about the “MRT (0→∞)” value ([4]; single s.c. bolus 10 mg/kg) of the same compound?
Its value is 28.2 min.

And the “AUC(0→t)” value ([4]; single s.c. bolus 30 mg/kg)?
The value was 32646 ng·h/mL.

What about the Cl/F ([4]; single s.c. bolus 30 mg/kg) of the same compound?
Its Cl/F is 4.5 mL/min/kg.

What about the Cmax ([4]; single s.c. bolus 30 mg/kg) of the same compound?
Its Cmax is 61014 ng/mL.

What about the “MRT (0→∞)” value ([4]; single s.c. bolus 30 mg/kg) of the same compound?
Its value is 28.8 min.

What about the “AUC(0→t)” value ([4]; single s.c. bolus 100 mg/kg) of the same compound?
The value was 139603 ng·h/mL.

And the Cl/F ([4]; single s.c. bolus 100 mg/kg)?
Its Cl/F is 3.5 mL/min/kg.

And the Cmax ([4]; single s.c. bolus 100 mg/kg)?
Its Cmax is 263264 ng/mL.

What about the “MRT (0→∞)” value ([4]; single s.c. bolus 100 mg/kg) of the same compound?
Its value is 29.4 min.

And the “AUC(0→t)” value ([5]; 4 h i.v. infusion 10 mg/kg)?
Its value is 3877 ng·h/mL.

What about the Cmax ([5]; 4 h i.v. infusion 10 mg/kg, level at 240 min) of the same compound?
Its Cmax is 1877 ng/mL.

And the “time at which low-level steady state was observed” value [5, 9]?
The value was 60 min.

And the “time at which maximum levels were reached” value [5, 9]?
The value was at most 30 min.

And the “AUC(0→t)” value ([5]; 4 h i.v. infusion 50 mg/kg)?
The value was 51665 ng·h/mL.

What about the Cmax ([5]; 4 h i.v. infusion 50 mg/kg) of the same compound?
Its Cmax is 16218 ng/mL.

And the “mortality (animals died)” value ([6]; 50 mg/kg 4 h i.v. infusion daily, 12 uremic rats per group, 4 died in control group)?
Its value is 7 animals.

What about the “inhibition of development of calcification in aorta” value [6, 10] of the same compound?
Its value is “up to 80%”.

What about the “mortality vs control group” value [6, 10] of the same compound?
Its value is “no significant differences”.

And the “serum creatinine vs control” value [6, 10]?
Its value is “No significant differences”.

And the “serum urea vs control” value [6, 10]?
The value was “No significant differences”.

What about the “circulating (serum) phosphorus” value ([6]; 50 mg/kg 4 h i.v. infusion daily, uremic rats, control 17.6 mg/dL, not significant) of the same compound?
Its value is 19.9 mg/dL.

And the “mean serum ALP activity” value ([6]; 50 mg/kg 4 h i.v. infusion daily, uremic rats, control 295 U/L, not significant)?
Its value is 725 U/L.

What about the “median heart calcium content” value ([6]; 50 mg/kg 4 h i.v. infusion daily, uremic rats, control median 1.6 mg/g) of the same compound?
The value was 0.2 mg/g.

And the “median aorta calcium content” value ([6]; 50 mg/kg 4 h i.v. infusion daily, uremic rats, control median 65.0 mg/g)?
The value was 12.8 mg/g.

What about the “reduction in serum calcium levels” value ([6]; 50 mg/kg 4 h i.v. infusion daily, uremic rats, significant vs control) of the same compound?
The value was 17%.

And the “signs of hypocalcemia (dyspnea, muscle spasms, convulsions)” value ([6]; 50 mg/kg 4 h i.v. infusion, uremic rats)?
The value was “no signs of hypocalcemia”.

What about the circulating phytate levels ([6]; non-uremic animals (day 0), end of 4 h i.v. infusion 50 mg/kg) of the same compound?
Its circulating phytate levels is ~ 150,000 ng/mL.

What about the “decrease in circulating phytate” value ([6]; uremic animals, during and after 4 h of SNF472 infusion) of the same compound?
Its value is 90%.

And the “inhibition of aorta calcium vs vehicle” value ([7]; 1 mg/kg i.v. daily)?
The value was 60%.

And the “inhibition of heart calcium vs vehicle” value ([7]; 1 mg/kg i.v. daily)?
The value was 74% and 74.4%.

What about the serum phosphorus ([7]; 1 mg/kg i.v. daily, control 14.75 mg/dL, significantly increased) of the same compound?
The serum phosphorus was 18.96 mg/dL.

And the “mean heart calcium content” value ([7]; 1 mg/kg i.v. daily, vitamin D3 75 kIU/kg p.o. x5, vehicle 3.35 mg/g)?
The value was 1.06 mg/g.

And the “mean aortic calcium content” value ([7]; 1 mg/kg i.v. daily, vitamin D3 75 kIU/kg p.o. x5, vehicle 91.1 mg/g)?
Its value is 36.8 mg/g.

What about the serum calcium ([7]; 1 mg/kg i.v. daily, vs sham (8.72 mg/dL) and vitamin D control (10.50 mg/dL)) of the same compound?
The serum calcium was “statistically significant higher levels than sham and control groups”.

And the “inhibition of aorta calcium vs vehicle” value [7, 11]?
The value was 56.2%.

And the “inhibition of heart calcium vs vehicle” value [7, 11]?
The value was 70.4%.

What about the “inhibition of CVC in non-uremic rats” value ([7]; non-uremic rats, vitamin D3 model) of the same compound?
The value was 60–70%.
